Measurements reported in patent publication US6642215B2 (Leo Pharma A/S, priority 2001, dated 2003).
Read-outs that look alike come from different tables or passages of the source.

Key:
Colo-320 DM = Colo-320 DM xenografts in nude mice, tumour growth; format: in vivo, NMRI nu/nu mice; conditions: Colo-320 xenograft, 50 mg/kg, oral gavage
Protocol: (§1) All of the animal experiments were conducted according to the guidelines and ethical standards of the Danish Committee for Animal Experiments. Female NMRI nu/nu mice 6 weeks of age were purchased from M&B (Ry, Denmark). The mice were allowed an acclimatisation period of 1-3 weeks before start of the experiments. The nude mice were housed in Scantainers under semi-sterile conditions and all handling of mice was performed in a laminar flow bench.
Colo-320 DM, NMRI nu/nu mice were injected with 5×10^6 cells in 0.2 ml media s.c. in each flank and tumour size was measured as mentioned above. Compound A was given for three weeks by oral gavage from day 8 when the tumour size was about 20 mm^2. Each treatment group consisted of 10 mice.
(§2) Statistical Methods In the animal models, tumour sizes were expressed by the mean of the trends in each treatment group. The trend is the linear increment or tumour size, where tumour size is the square root of the (mean) area of the tumour(s). Comparison with controls was expressed as T/C % and calculated as follows:
(§3) A=(overall mean tumour size at baseline+mean trend of treatment*intended days of treatment) […]
(§4) Overall mean tumour size at baseline=pooling all treatments this is the mean of all baseline values. For each mouse the baseline value is calculated as the square root of the (mean) area of the tumour(s). […]

PC-3 Xenografts = assay: PC-3 xenografts in nude mice, tumour growth; format: in vivo, NMRI nu/nu mice; conditions: PC-3 xenograft, 50 mg/kg, oral gavage
Protocol: as §1
PC-3 Xenografts. NMRI nu/nu mice were injected with 1×10^6 cells in 0.2 ml media s.c. in each flank and tumour size was measured as mentioned above. Compound A was given for four weeks by oral gavage from day 14 when the tumour size was about 12 mm^2. Each treatment group consisted of 10 mice.
as §2, §3, §4

IKK = molecular target: T1, IKK (Homo sapiens, UniProt O14920); assay: In vitro kinase assay: IKK immunoprecipitated from LPS-stimulated THP-1 cells, GST-IκBα phosphorylation; format: biochemical; conditions: 30 min pretreatment of LPS-activated IKK
T1 construct: IKK was immunoprecipitated with an IKKα/β antibody; endogenous in cells; host or cells: THP-1 cells stimulated with 1 μg/ml LPS; whole cell extract immunoprecipitated with an IKKα/β antibody (Santa Cruz)
Protocol: In vitro kinase assay: THP-1 cells (1×10^7 cells) were stimulated with 1 μg/ml LPS for the indicated time periods and whole cell extracts were prepared as described above. IKK was immunoprecipitated with an IKKα/β antibody (raised against amino acid 470-755 of IKKβ of human origin but partially cross-reactive with IKKα as detected by Western Blotting (Santa Cruz Biotechnology Inc.). Compound A was diluted in kinase buffer (25 mM HEPES pH 7.5, 10 mM magnesium acetate, 50 μM ATP) at the appropriate concentrations. The compound was added to the beads for 30 min. at 30° C. The kinase reaction was started by adding 2.5 μg of the GST-IκBα substrate (Santa Cruz Biotechnology Inc.) together with 2 μCi γ-^32P-ATP (Amersham Pharmacia Biotech) per sample. The reaction was allowed to proceed for 30 min. at 30° C., and the IKK activity was measured by the amount of radioactive-labelled GST-IκBα bands, quantified by the STORM860 Phospho-Imager.
A general problem with the kinase assay is prestimulation of the kinase. To achieve a value for the zero-point, the LPS-activated IKK mixture was incubated with 20 μM myricetin (Sigma-Aldrich), which is a known IKKβ inhibitor (S. H. Tsal et al., J. Cell Biochem. 74, 1999, pp. 606-615). This value was subtracted from the all other values. All data are expressed as percentage of the activity of the LPS-activated IKKβ kinase treated with 0.1% DMSO.

Colo-320 cells = assay: DNA synthesis (tritiated thymidine incorporation) in Colo-320 cells; format: cell-based; conditions: Homo sapiens, 144 h incubation, mean ± SD of two to four experiments
Protocol: DNA synthesis: NYH SCLC, HT-1080, Colo-320, PC-3 and H460 cells (7.5×10^3 cells/ml) were seeded in tissue culture vessels and the test compound were added 2 h after plating. Following an incubation for 144 h tritiated thymidine (5 CI/mmol, Amersham Pharmacia Biotech) was added to the culture at the concentration of 1 μCi/ml, and the cells were incubated for additional 4 h. The incorporated thymidine was measured with a β-counter. Each compound concentration was tested in triplicate.

NF-κB = assay: NF-κB-dependent luciferase reporter assay in LPS-stimulated THP-1 cells; format: cell-based, human; conditions: 1 μM compound, then 1 μg/ml LPS 5 h
Description: Luciferase plasmids: The NF-κB-luciferase reporter plasmid (pBIIX) was a gift from Marja Jäättelä and Ida S. Mathiasen, the Danish Cancer Society. It was constructed by inserting a synthetic fragment with two copies of the sequence (5′-ACAGAGGGGACTTTCCGAGAG-3′ separated by four nucleotides (5′-ATCT-3′) in front of a mouse fos promoter in a plasmid pfLUC (a pBluescript-based plasmid with a firefly luciferase encoding sequence) (K. Saksela and D. Baltimore, Mol. Cell Biol. 13, 1993, pp. 3698-3705) The NF-κB binding site from the mouse Igκ light chain is underlined (M. Grilli et al., Int. Rev, Cytol. 143, 1993, pp. 1-62). A Renilla luciferase plasmid with a thymidine kinase promoter (pRL-TK vector) was used as a control for transfection efficiency and was obtained from Promega Inc., Madison, Wis. Plasmid DNA was prepared and purified using the QIAGEN EndoToxin-free Maxiprep-500 kit (QIAGEN, Hilden, Germany). […]
The cell lysate was assayed for luciferase activity using the Dual luciferase kit as described by the manufacturer (Promega). […] Firefly luciferase activity was corrected for differences in transfection efficiency by normalizing it to the measured Renilla luciferase activity.

T1 sequence (O14920 whole entry): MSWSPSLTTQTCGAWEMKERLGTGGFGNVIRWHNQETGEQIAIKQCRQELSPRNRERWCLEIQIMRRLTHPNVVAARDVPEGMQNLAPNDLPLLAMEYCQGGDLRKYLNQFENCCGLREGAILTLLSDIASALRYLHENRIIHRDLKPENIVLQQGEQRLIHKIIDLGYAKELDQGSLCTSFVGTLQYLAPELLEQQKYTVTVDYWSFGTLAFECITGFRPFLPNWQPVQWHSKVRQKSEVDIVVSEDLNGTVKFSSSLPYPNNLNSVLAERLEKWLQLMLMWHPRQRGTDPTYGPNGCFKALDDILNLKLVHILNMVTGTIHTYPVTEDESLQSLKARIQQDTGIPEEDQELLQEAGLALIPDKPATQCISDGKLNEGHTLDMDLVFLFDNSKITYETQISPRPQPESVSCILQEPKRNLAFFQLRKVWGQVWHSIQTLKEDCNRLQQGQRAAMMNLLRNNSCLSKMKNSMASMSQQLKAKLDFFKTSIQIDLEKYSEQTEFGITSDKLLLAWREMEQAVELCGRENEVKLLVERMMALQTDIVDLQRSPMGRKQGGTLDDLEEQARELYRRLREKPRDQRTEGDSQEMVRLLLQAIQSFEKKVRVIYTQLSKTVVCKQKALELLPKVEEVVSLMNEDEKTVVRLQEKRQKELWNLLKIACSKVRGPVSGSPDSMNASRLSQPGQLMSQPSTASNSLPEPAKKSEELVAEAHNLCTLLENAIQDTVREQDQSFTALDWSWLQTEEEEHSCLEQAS
T1 sequence (O15111 whole entry partner): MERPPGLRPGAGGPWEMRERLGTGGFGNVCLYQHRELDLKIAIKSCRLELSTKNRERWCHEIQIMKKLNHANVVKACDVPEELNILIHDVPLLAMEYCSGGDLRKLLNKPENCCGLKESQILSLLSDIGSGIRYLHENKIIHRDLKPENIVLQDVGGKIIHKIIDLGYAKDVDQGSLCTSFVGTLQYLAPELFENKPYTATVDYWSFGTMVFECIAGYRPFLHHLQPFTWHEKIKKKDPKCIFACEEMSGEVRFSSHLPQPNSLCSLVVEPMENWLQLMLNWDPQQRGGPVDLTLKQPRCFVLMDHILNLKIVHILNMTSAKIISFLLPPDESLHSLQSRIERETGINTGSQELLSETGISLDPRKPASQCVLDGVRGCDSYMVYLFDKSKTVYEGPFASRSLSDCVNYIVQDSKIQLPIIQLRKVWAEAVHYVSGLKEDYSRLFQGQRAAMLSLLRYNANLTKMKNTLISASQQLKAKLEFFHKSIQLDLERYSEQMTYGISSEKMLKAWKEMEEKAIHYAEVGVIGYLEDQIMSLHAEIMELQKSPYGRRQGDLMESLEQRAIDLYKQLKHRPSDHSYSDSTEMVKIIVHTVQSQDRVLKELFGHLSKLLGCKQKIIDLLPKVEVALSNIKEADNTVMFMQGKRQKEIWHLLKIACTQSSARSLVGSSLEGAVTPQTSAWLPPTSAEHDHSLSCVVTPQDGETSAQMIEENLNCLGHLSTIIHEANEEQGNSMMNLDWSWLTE
T1 sequence (Q9Y6K9 whole entry partner): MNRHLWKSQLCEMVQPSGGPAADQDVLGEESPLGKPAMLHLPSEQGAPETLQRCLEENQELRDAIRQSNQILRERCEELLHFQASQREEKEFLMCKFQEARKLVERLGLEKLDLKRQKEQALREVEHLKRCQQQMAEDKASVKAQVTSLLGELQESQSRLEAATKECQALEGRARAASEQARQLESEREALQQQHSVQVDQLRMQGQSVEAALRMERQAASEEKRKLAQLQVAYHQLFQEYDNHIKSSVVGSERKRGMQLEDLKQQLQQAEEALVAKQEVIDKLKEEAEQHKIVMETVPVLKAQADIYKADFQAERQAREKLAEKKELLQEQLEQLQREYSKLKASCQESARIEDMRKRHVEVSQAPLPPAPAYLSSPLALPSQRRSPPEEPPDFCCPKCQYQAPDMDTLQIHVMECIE

N#CNC(=Nc1ccncc1)NCCCCCCOc1ccc(Cl)cc1 [compound A, N-(6-(4-chlorophenoxy)hexyl)-N′-cyano-N″-(4-pyridyl)guanidine]
In vivo xenografts in nude mice T/C (%) (Colo-320 DM): −50%
In vivo xenografts in nude mice T/C (%) (PC-3 Xenografts): −5%
IC50 (IKK; four independent experiments, read-out: IKK activity IC50, range of values): 0.9 to 70 nM
IC50 (IKK; mean of four independent experiments, read-out: IKK activity, mean IC50 value): 8 nM
IC50 (Colo-320 cells): 5.4 ± 0.1 nM
NF-κB-dependent luciferase activity, change (NF-κB; preincubation 2 h): small decrease
NF-κB-dependent induction of luciferase expression blocked (NF-κB; preincubation 24 h, relative to DMSO-treated cells): ~80%
